This note sets out measurements from ChEMBL document CHEMBL5131564, “Discovery of Potent and Selective Receptor-Interacting Serine/Threonine Protein Kinase 2 (RIPK2) Inhibitors for the Treatment of Inflammatory Bowel Diseases (IBDs)” (J Med Chem, 2022).

Active and inactive are the calls of the source. No cut-off for these calls is given here.

Data set [1] is described as follows: Inhibition of LPS/MDP-stimulated TNFalpha production in C57BL/6J mouse BMDM cells by ELISA relative to control. It counts as functional, cell-based. Background: In an ELISA, binding on a coated surface is turned into a signal by an enzyme label.
The target of data set [2] is Receptor-interacting serine/threonine-protein kinase 2 (Homo sapiens, UniProt O43353). Kind of data set: Inhibition of human RIPK2 incubated for 120 mins in presence of [gamma33P]ATP by scintillation counting based radiometry assay.
Sequence of Receptor-interacting serine/threonine-protein kinase 2 (O43353 whole entry): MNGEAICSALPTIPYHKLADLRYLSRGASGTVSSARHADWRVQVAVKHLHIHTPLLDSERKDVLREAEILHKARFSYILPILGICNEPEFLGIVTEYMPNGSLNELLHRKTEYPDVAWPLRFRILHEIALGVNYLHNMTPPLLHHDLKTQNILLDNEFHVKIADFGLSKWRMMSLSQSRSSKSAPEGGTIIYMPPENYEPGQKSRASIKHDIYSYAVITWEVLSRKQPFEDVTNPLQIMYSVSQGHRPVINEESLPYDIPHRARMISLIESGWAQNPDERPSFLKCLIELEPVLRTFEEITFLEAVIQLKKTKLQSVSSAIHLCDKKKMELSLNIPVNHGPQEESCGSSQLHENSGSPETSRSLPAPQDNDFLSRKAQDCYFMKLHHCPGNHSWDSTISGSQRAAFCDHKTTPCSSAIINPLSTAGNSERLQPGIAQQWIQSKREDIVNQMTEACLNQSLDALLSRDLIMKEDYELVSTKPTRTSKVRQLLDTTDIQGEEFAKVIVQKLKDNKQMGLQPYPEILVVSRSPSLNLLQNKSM
For data set [3], the target named is T1, Receptor-interacting serine/threonine-protein kinase 1 (Homo sapiens) (UniProt Q13546).
T1 sequence (whole entry): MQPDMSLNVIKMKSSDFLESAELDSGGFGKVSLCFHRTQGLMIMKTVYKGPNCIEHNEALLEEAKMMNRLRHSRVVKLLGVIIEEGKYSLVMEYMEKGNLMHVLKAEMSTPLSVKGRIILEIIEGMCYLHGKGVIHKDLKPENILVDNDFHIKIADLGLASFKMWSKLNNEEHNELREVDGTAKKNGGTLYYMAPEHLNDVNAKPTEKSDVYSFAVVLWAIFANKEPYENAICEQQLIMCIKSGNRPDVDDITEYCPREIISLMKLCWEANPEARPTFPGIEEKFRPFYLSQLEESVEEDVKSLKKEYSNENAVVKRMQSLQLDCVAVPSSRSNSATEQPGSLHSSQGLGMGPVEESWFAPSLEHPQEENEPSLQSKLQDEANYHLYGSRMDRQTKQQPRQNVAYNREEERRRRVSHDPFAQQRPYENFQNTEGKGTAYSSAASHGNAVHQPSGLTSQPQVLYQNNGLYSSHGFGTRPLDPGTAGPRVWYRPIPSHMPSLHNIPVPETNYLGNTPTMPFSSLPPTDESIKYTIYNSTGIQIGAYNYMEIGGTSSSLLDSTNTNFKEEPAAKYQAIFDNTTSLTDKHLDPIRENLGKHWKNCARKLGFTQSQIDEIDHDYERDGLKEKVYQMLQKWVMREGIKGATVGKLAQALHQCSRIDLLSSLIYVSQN
In words: Inhibition of human RIPK1 assessed as active kinase incubated for 120 mins in presence of [gamma33P]ATP at 1000 nM by scintillation counting based radiometry assay relative to control. More on the design: scale not given: the % may be the effect or the level left.

Data set [4] in a line: Inhibition of MDP-stimulated TNFalpha production in mouse RAW264.7 cells at 100 nM incubated for 22 hrs by ELISA relative to control. Type of data set: functional.
Data set [5] can be described thus: Metabolic stability in human liver microsomes assessed as half life at 1 uM by LC/MS/MS analysis. Type of data set: ADME, Microsome.
Data set [6] can be described thus: Toxicity in rat H9c2 cells assessed as inhibitory rate at 10 uM relative to control. Type of data set: cell-based.
Data set [7] in a line: Toxicity in rat H9c2 cells assessed as inhibitory rate. Type of data set: cell-based.
Another data set has as its system Mus musculus. In words: Anti-inflammatory activity against DSS-induced acute ulcerative colitis C57BL/6 mouse model assessed as recovery of weight loss at 20 mg/kg, po for 6 consecutive days. It counts as functional, organism-based.

Usually IC50 stands for the point on the concentration scale where inhibition reaches its midpoint. One may read the inhibition as the percentage by which the read-out fell short of the control. As a reminder, the half-life is the time in which the quantity being followed falls by half.

`Cc1ccc(-c2nn(C(C)(C)CNC(=O)c3ccncc3)c3ncnc(N)c23)cc1`: the IC50 in data set [1] turned out to be 57.7 nM; in data set [2], 33.8 nM; in data set [7] it was 13100 nM. Moreover, the Activity in data set [3] came to 95%. This compound also registered an inhibition at 0.1 µM in data set [4] of 68%. Further, the half-life at 1 µM in data set [5] is 33.8 min. Further, the inhibition at 10 µM in data set [6] came to 50%.
Turning to `Cc1ccc(-c2cn([C@H]3CC[C@@H](N)CC3)c3ncnc(N)c23)c(Cl)c1`, the IC50 amounted to 2.3 nM in data set [1] and 11400 nM in data set [7]. Besides, in data set [5], the half-life at 1 µM was above 120 min. The result in the data set on Mus musculus was Active.
